We go through one compound from paper PMC11234460, “In Silico Discovery of Stapled Peptide Inhibitor Targeting the Nur77‐PPARγ Interaction and Its Anti‐Breast‐Cancer Efficacy” (Advanced Science, 2024).

Where a SMILES comes first, the peptide text is derived from it. Bridges are numbered along the chain shown (N, C = ends). [ ]: non-standard residue; d: D form. S5 = C=CCCC[C@](C)(N)C(=O)O

Series [1] deals with MDA-MB-231 cells. Description: Western blot of Nur77, CD36 and FABP4. The class given is cell-based. Here is the method:
MCF7 and MDA‐MB‐231 cells were treated with various concentrations of peptide. The cells were then collected and lysed in NP40 lysis buffer. Total protein was quantified using a BCA assay kit (Beyotime, P0010S). The proteins were separated by SDS‐PAGE and transferred onto a PVDF membrane. The PVDF membrane was blocked in TBST containing 5% non‐fat milk, and then incubated with primary antibodies overnight at 4 °C. Subsequently, membranes were incubated with horseradish peroxidase‐conjugated antirabbit or antimouse IgG secondary antibody for 1 h at room temperature. The membranes were analyzed by a Tanon‐5200 Multi Gel Imaging Analysis System (Tanon) and quantified by ImageJ software.
For orientation: In western blotting, separated proteins are transferred to a membrane and probed.

Series [2] deals with MCF7 cells. Put plainly: Transwell cell migration analysis. The class given is cell-based, human. The note with it: MCF7, 12 h. Here is the method:
600 µL DMEM complete medium was added to the lower chamber of the Transwell. Next, 2×10^4 cells in 100 µL DMEM medium, containing 1, 2, 5, 10, or 2 × 10^−5 M peptides, were added to the upper chamber of the Transwell. The cells were incubated for 12 h at 37 °C and 5% CO2. After the incubation period, the medium was discarded, and the chamber was washed with PBS. The cells were then fixed with 4% paraformaldehyde for 20 min. The upper chamber was subsequently soaked in crystal violet for 20 min, washed with PBS, and observed under a microscope for analysis.

The test system of series [3] is MDA-MB-231 cells. Description: Energy metabolism analysis (Seahorse OCR). The class given is cell-based. To be noted: MDA-MB-231, 24 h treatment, n = 3. As for the experimental part: Cell energy metabolism analysis was conducted using a Seahorse cell energy metabolism analyzer (Agilent, USA). In brief, 8000 cells were seeded per well in a 96‐well XF96 plate (Agilent, 103794‐100) and cultured overnight. Subsequently, the cells were treated with various concentrations of peptides for 24 h. To prepare for metabolic stress injections, cartridge plates (Agilent, w15023) were hydrated with H2O for at least 12 h at 37 °C before the assay. 1 h before detection, the medium in each well was replaced with 180 µL XF calibrant solution (Agilent, 100840‐000), Afterward, the cell plate was replaced with 180 µL XF DMEM (Agilent, 103575‐100) with glucose (1 × 10^−2 M) (Agilent, 103577‐100), pyruvate (1 × 10^−3 M) (Agilent, 103578‐100) and glutamine (2 × 10^−3 M) (Agilent, 103579‐100) and the mixture was incubated in a CO2‐free incubator at 37 °C for 1 h. Then, 20 µL basic medium, 22 µL 1.5 × 10^−4 M oligomycin, 25 µL 1.5 × 10^−4 M FCCP, and 27 µL 5 × 10^−5 M ROT/AA (Agilent, 10315‐100) were added to wells A, B, C, and D, respectively, of the cartridge plates. The assay was carried out according to the manufacturer's instructions, and the OCR was reported in picomoles per min. The results were normalized to the cell number determined by the CCK‐8 assay.

The subject of series [4] is MCF7 cells. Description: qPCR of CD36 and FABP4. The class given is cell-based, human. To be noted: n = 3. (Real-time PCR tracks product formation cycle by cycle.)
A short description of series [5]: CD spectroscopy, α-helicity. The class given is physicochemical. To be noted: 5 × 10^−5 M peptide in H2O, 25 °C, 1 mm cuvette, 185-260 nm. As for the experimental part:
The detection wavelengths of the peptides were 214 and 254 nm. Solvent A: H2O (containing 0.1% TFA) and solvent B: acetonitrile (containing 0.1% TFA) were used as solvents in linear gradient mixtures. Peptide purification was performed by semi‐preparative HPLC using an XBridge Prep C18 column (19 × 250 mm, 10 µm particle size, flow rate of 20 mL min^−1). Solvents A and B were the same as those in the peptide analysis procedure. The peptides were dissolved in H2O to a final concentration of 5 × 10^−5 M. The purified peptide was detected using a mass spectrometer (6410 Triple Quad LC/MS, Agilent, USA) (Table S2, Supporting Information). The solvent was 80% methanol and 20% H2O (containing 0.1% formic acid). The CD spectra were obtained with a 1 mm quartz cuvette on a BRIGHT TIME Chirasca (Applied Photophysics, Britain) spectropolarimeter with a scan wavelength between 185–260 nm at 25 °C. The helicity of each peptide was calculated by the literature equation.^[ [24] ^]

For series [6], the system named is MDA-MB-231 cells. Description: Cell viability assay (CCK-8). The class given is cell-based. The note with it: MDA-MB-231, 5 × 10^−6 M, 24 h.
Description: MCF7, MDA‐MB‐231, and MDA‐BoM‐1833 cells (5000 cells/well) were seeded in 96‐well plates and cultured overnight at 37°C and 5% CO2. The cells were then treated with fresh basic medium containing various concentrations (1/2/5/10/20 × 10^−6 M) of compounds. After 24 h of incubation, the cells were incubated with a basic medium containing 10% Cell Counting Kit‐8 (Dojindo, CK‐04) for 2 h. Cell viability was evaluated by measuring the absorbance at 450 nm. The formula used was [(As‐Ab)/(Ac‐Ab)] × 100%, where as represents the absorbance of the drug‐treated group, Ac represents the absorbance of the control group treated with medium, and Ab represents the absorbance of the blank control containing only medium.

Regarding `C[C@@H](O)[C@@H]1NC(=O)[C@H](CCCNC(=N)N)NC(=O)[C@H](CCCNC(=N)N)NC(=O)[C@@](C)(NC(=O)[C@H](Cc2ccccc2)NC(=O)CNC(=O)[C@H](CCCCN)NC(=O)[C@H](CS)NC(=O)CNC(=O)[C@H](CCC(=O)O)NC(=O)[C@@H](N)CS)CCCC=CCCC[C@@](C)(C(=O)N[C@@H](CCCNC(=N)N)C(=O)N[C@@H](Cc2ccc(O)cc2)C(=O)N[C@@H](Cc2ccc(O)cc2)C(=O)NCC(=O)N[C@@H](CCCNC(=N)N)C(=O)N[C@@H](CCCCN)C(=O)N[C@@H](CCCCN)C(=O)N[C@@H](CCCNC(=N)N)C(=O)N[C@@H](CCCNC(=N)N)C(=O)N[C@@H](CCC(N)=O)C(=O)N[C@@H](CCCNC(=N)N)C(=O)N[C@@H](CCCNC(=N)N)C(=O)N[C@@H](CCCNC(=N)N)C(N)=O)NC1=O` [ST-CY14] (H-CEGCKGF[S5]RRT[S5]RYYGRKKRRQRRR-NH2; staple 8-12), in series [1], the “CD36 and FABP4 protein expression (immunoblot)” value was “inhibited the protein expression of CD36 and FABP4”; the “Nur77 protein expression (immunoblot)” value is on record as “increase in Nur77 expression”. Besides, the Transwell transmigration entry in series [2] is “inhibited the transmigration”. In addition, in series [3], the “Oxygen consumption rate (OCR)” value is recorded as “significantly reduced”. Further, in series [4], the “CD36 and FABP4 transcription (qPCR)” value was “dose‐dependently inhibited CD36 and FABP4 expression at the transcriptional level”. Moreover, the “α-Helicity (CD)” value in series [5] was determined as 12.01%. For the same compound, in series [6], the “Cell viability / proliferation” value is given as “significantly attenuated breast tumor cell proliferation”.
